SMILES strings stand for the structures.

The nature of this data set: Measurement of Log P values by HPLC on reversed phase columns (EEC directive 79/831 Annex V.A8). It is filed as physicochemical. On the procedure: Measurement of Log P values as provided herein was performed according to EEC directive 79/831 Annex V.A8 by HPLC (High Performance Liquid Chromatography) on reversed phase columns with the following methods: • ^[a] Log P value is determined by measurement of LC-UV, in an acidic range, with 0.1% formic acid in water and acetonitrile as eluent (linear gradient from 10% acetonitrile to 95% acetonitrile). • ^[b] Log P value is determined by measurement of LC-UV, in a neutral range, with 0.001 molar ammonium acetate solution in water and acetonitrile as eluent (linear gradient from 10% acetonitrile to 95% acetonitrile). • ^[c] Log P value is determined by measurement of LC-UV, in an acidic range, with 0.1% phosphoric acid and acetonitrile as eluent (linear gradient from 10% acetonitrile to 95% acetonitrile).
If more than one Log P value is available within the same method, all the values are given and separated by “+”.
Calibration was done with straight-chain alkan2-ones (with 3 to 16 carbon atoms) with known Log P values (measurement of Log P values using retention times with linear interpolation between successive alkanones). Lambda-max-values were determined using UV-spectra from 200 nm to 400 nm and the peak values of the chromatographic signals
As to `Cc1ncc(Oc2cccc(C(F)(F)F)c2)c(C(=O)O)n1` [Compound 1-01, 2-methyl-5-[3-(trifluoromethyl)phenoxy]pyrimidine-4-carboxylic Acid], the chromatographic logP – broadly, a lipophilicity value derived from retention on a column – was found to be 1.69. For the compound `COc1ncc(Oc2cccc(C(F)(F)F)c2)c(C(=O)O)n1` [Compound 1-04], the LogP was 1.96^[a]. Same read-out and setting: as for `Cc1nnc(Oc2cccc(C(F)(F)F)c2)c(C(=O)NC(C)c2cccc(C(F)(F)F)c2)n1` (stereo not shown) [Compound I-119], the figure is 3.77^[a]; as for `Cc1nnc(Oc2cccc(C(F)(F)F)c2)c(C(=O)NCC(Cl)c2ccc(Cl)cc2Cl)n1` (racemic) [Compound I-020], 4.34^[a]; as for `Cc1ccc2c(c1)CCCC2NC(=O)c1nc(C)ncc1Oc1cccc(C2CC2)c1F` (stereo not shown) [Compound I-053], 4.49^[a]. `CCOC(=O)c1nc(C)nnc1Oc1cccc(C(F)(F)F)c1` [Compound 1-02, ethyl 3-methyl-6-[3-(trifluoromethyl)phenoxy]-1,2,4-triazine-5-carboxylate] showed a chromatographic logP of 3.18. `Cc1ncc(Oc2cccc(C3CC3)c2F)c(C(=O)NCC(F)(F)c2cc(Cl)sc2Cl)n1` [Compound I-070]: the LogP is 4.69^[a].

Regarding `Cc1ncc(Oc2cccc(C3CC3)c2F)c(C(=O)NC2CC23CCc2cc(Br)ccc23)n1` (mixture of isomers) [Compound I-091], the LogP is 4.73^[a].

As for `Cc1ncc(Oc2cccc(C3CC3)c2F)c(C(=O)N(Cc2ccccc2)OCC(C)C)n1` [Compound I-088], the LogP was 4.72^[a]. Regarding `Cc1ccc(C(F)(F)CNC(=O)c2nc(C3CC3)nnc2Oc2cccc(C(F)(F)F)c2)cc1C` [Compound I-024], the LogP is 4.66^[a]. Still for that read-out and setting: as for `Cc1cccc(Oc2cnc(C)nc2C(=O)NCC(F)(F)c2ccc(C)cc2C)c1` [Compound I-033], the figure is 4.06^[a]; as for `Cc1ccc(C(F)(F)CNC(=O)c2nc(C)ncc2Oc2ccc3ccccc3c2)c(C)c1` [Compound I-106], 4.35^[a]; as for `Cc1ncc(Oc2cccc(C(F)(F)F)c2)c(C(=O)NCC(F)(F)c2ccc(Br)cc2Cl)n1` [Compound I-004], 4.49^[a].

Take `Cc1ccc(C(F)(F)CNC(=O)c2nc(C)ncc2Oc2cccc([N+](=O)[O-])c2)c(C)c1` [Compound I-090]: the LogP is 3.75^[a]. In the case of `Cc1ncc(Oc2cccc(C3CC3)c2F)c(C(=O)NCCOc2ccc(Cl)cc2)n1` [Compound I-054], the LogP was 3.93^[a]. Same read-out and setting: in the case of `Cc1ncc(Oc2cccc(C3CC3)c2F)c(C(=O)NCCc2ccc3c(c2)OCCO3)n1` [Compound I-077] it was 3.30^[a]; in that of `Cc1ncc(Oc2cccc(C3CC3)c2F)c(C(=O)NCCOc2ccc(C(F)(F)F)cc2Cl)n1` [Compound I-081], 4.52^[a].

Consider `COc1cccc(Oc2nnc(C3CC3)nc2C(=O)N/C=C(\F)c2ccc(C)cc2C)c1` [Compound I-061], for which the LogP is 4.44^[a].

For the compound `Cc1nnc(Oc2cccc(C3CC3)c2)c(C(=O)NCC(F)(F)c2ccc(C)c(C)c2)n1` [Compound I-031], the LogP was 4.19^[a]. The same measure, in the same setting: as for `Cc1ncc(Oc2cccc(C3CC3)c2F)c(C(=O)NCCc2csc(C)c2C)n1` [Compound I-134], the figure is 4.10^[a]; as for `Cc1ccc(C(F)(F)CNC(=O)c2nc(C)ncc2Oc2ccc(C)c(Cl)c2)c(C)c1` [Compound I-093], 4.54^[a]. Turning to `Cc1ccc(C(F)(F)CNC(=O)c2nc(C)ncc2Oc2cccc(C#N)c2)c(C)c1` [Compound I-079], the LogP is 3.53^[a]. On to `Cc1ncc(Oc2cccc(C3CC3)c2F)c(C(=O)NCCc2cccs2)n1` [Compound I-064], for which the LogP is 3.43^[a]. Same read-out and setting: in the case of `Cc1ccc(C(F)(F)CNC(=O)c2nc(C)ncc2Oc2ccc(F)c(Cl)c2)c(C)c1` [Compound I-129] it was 4.20^[a]; in that of `Cc1ccc(C(F)(F)CNC(=O)c2nc(C3CC3)nnc2Oc2cccc(C)c2F)c(C)c1` [Compound I-050], 4.47^[a]; in that of `Cc1ccc(C(F)(F)CNC(=O)c2nc(C)ncc2Oc2cnc3ccccc3c2)c(C)c1` [Compound I-120], 3.40^[a]. Turning to `Cc1ncc(Oc2cccc(C3CC3)c2F)c(C(=O)NCCc2cccc3[nH]ccc23)n1` [Compound I-042], the LogP is 3.23^[a]. The same measure, in the same setting: in the case of `Cc1ncc(Oc2cccc(C3CC3)c2F)c(C(=O)NCCc2ccc(OC(C)C)nc2)n1` [Compound I-099] it was 3.44^[a]. The same measure, in the same setting: in the case of `Cc1ncc(Oc2cccc(C3CC3)c2F)c(C(=O)NCCc2ccc3c(c2)CCO3)n1` [Compound I-087] it was 3.43^[a]; in that of `Cc1ccc(/C(F)=C\NC(=O)c2nc(C3CC3)nnc2Oc2cccc(C3CC3)c2F)c(C)c1` [Compound I-040], 5.49^[a]; in that of `COc1cc(C(F)CNC(=O)c2nc(C)ncc2Oc2cccc(C3CC3)c2F)ccc1Cl` (stereo not shown) [Compound I-089], 3.93^[a]. Turning to `Cc1ccc(C(F)(F)CNC(=O)c2nc(C)ncc2Oc2cnc3c(c2)CCC3)c(C)c1` [Compound I-118], the LogP is 2.78^[a]. Still for that read-out and setting: as for `Cc1ncc(Oc2cccc(C3CC3)c2F)c(C(=O)NC2CCCc3sc(C4CC4)nc32)n1` (stereo not shown) [Compound I-078], the figure is 3.81^[a]; as for `Cc1nnc(Oc2cccc(C3CC3)c2)c(C(=O)NCC(F)(F)c2ccc(Cl)cc2)n1` [Compound I-028], 4.01^[a]; as for `Cc1ccc(C(F)(F)CNC(=O)c2nc(C)ncc2Oc2ccc(C(F)(F)F)cc2)c(C)c1` [Compound I-049], 4.39^[a]. Compound `Cc1ccc(C(F)(F)CNC(=O)c2nc(C)ncc2Br)c(C)c1` [Compound 3-04, 5-bromo-N-[2-(2,4-dimethylphenyl)-2,2-difluoroethyl]-2-methylpyrimidine-4-carboxamide] registered a chromatographic logP of 3.25. In the case of `Cc1ccc(C(F)(F)CNC(=O)c2nc(C)nnc2Oc2cccc(C3CC3)c2)c(Cl)c1` [Compound I-021], the LogP was 4.19^[a]. With `Cc1ncc(Oc2cccc(C(F)(F)F)c2)c(C(=O)NCC(F)(F)c2ccc(Cl)cc2)n1` [Compound I-002, N-[2-(4-chlorophenyl)-2,2-difluoroethyl]-2-methyl-5-[3-(trifluoromethyl)phenoxy]pyrimidine-4-carboxamide], the chromatographic logP was determined as 4.04.

On to `CCOC(=O)c1nc(C2CC2)nnc1Oc1cccc(C)c1F` [Compound 1-09], for which the LogP was 3.78^[a]. For the compound `Cc1ccc(C(F)(F)CNC(=O)c2nc(C)ncc2Oc2cccc(Br)c2)c(C)c1` [Compound I-085], the LogP is 4.28^[a].

`CCOc1cccc(Oc2cnc(C)nc2C(=O)NCC(F)(F)c2ccc(C)cc2C)c1` [Compound I-047]: the LogP is 4.13^[a].

As to `Cc1ncc(Oc2cccc(C3CC3)c2F)c(C(=O)NC2CCCc3ccc(Br)cc32)n1` (stereo not shown) [Compound I-045], the LogP was 4.55^[a]. Same read-out and setting: in the case of `Cc1ccc(C(F)(F)CNC(=O)c2nc(C3CC3)nnc2Oc2cccc(C3CC3)c2F)c(C)c1` [Compound I-037] it was 4.81^[a]; in that of `Cc1ccc(C(F)(F)CNC(=O)c2nc(C)ncc2Oc2cccc(OC(F)F)c2)c(C)c1` [Compound I-044], 3.98^[a]. For the compound `COCc1cccc(Oc2cnc(C)nc2C(=O)NCC(F)(F)c2ccc(C)cc2C)c1` [Compound I-072], the LogP was 3.67^[a]. The same measure, in the same setting: as for `C#Cc1cccc(Oc2cnc(C)nc2C(=O)NCC(F)(F)c2ccc(C)cc2C)c1` [Compound I-102], the figure is 4.01^[a]; as for `Cc1ccc(C(F)(F)CNC(=O)c2nc(C)ncc2Oc2cccc(C(F)(F)F)c2)c(C)c1` [Compound I-003], 4.32^[a]. Regarding `Cc1nnc(Oc2cccc(C(F)(F)F)c2)c(C(=O)NCC(F)(F)c2ccc(Br)cc2Cl)n1` [Compound I-005, N-[2-(4-bromo-2-chlorophenyl)-2,2-difluoroethyl]-3-methyl-6-[3-(trifluoromethyl)phenoxy]-1,2,4-triazine-5-carboxamide], the chromatographic logP was 4.26. Take `COc1ccc(CCN(C(C)=O)C(=O)c2nc(C)ncc2Oc2cccc(C3CC3)c2F)cc1` [Compound I-067]: the LogP was 4.01^[a]. With `COc1ncc(Oc2cccc(C(F)(F)F)c2)c(C(=O)NCC(F)(F)c2ccc(C)cc2C)n1` [Compound I-009], the LogP is 4.46^[a].

For the compound `Cc1ccc(C(F)(F)CNC(=O)c2nc(C)ncc2Oc2ccc3ccsc3c2)c(C)c1` [Compound I-023], the LogP is 4.15^[a].

With `O=C(O)c1nc(F)ncc1Oc1cccc(C(F)(F)F)c1` [Compound 1-13], the LogP is 1.52^[a]. Still for that read-out and setting: as for `Cc1ccc(C(F)(F)CNC(=O)c2nc(C)ncc2Oc2cccc(C(F)(F)F)c2)c(Cl)c1` [Compound I-008], the figure is 4.37^[a]. The same measure, in the same setting: as for `C#Cc1cccc(Oc2nnc(C3CC3)nc2C(=O)NCC(F)(F)c2ccc(C)cc2C)c1` [Compound I-073], the figure is 4.26^[a]. Same read-out and setting: as for `Cc1ncc(Oc2cccc(C3CC3)c2F)c(C(=O)NC2CCOc3ccc(F)cc32)n1` (racemic) [Compound I-030], the figure is 3.62^[a]; as for `C#Cc1cccc(Oc2nnc(C3CC3)nc2C(=O)OCC)c1` [Compound 1-11], 3.59^[a]. Take `CCc1ncc(Oc2cccc(C(F)(F)F)c2)c(C(=O)NCC(F)(F)c2ccc(C)cc2C)n1` [Compound I-011]: the LogP was 4.89^[a]. Same read-out and setting: as for `CC(NC(=O)c1nc(F)ncc1Oc1cccc(C(F)(F)F)c1)c1cccc(C(F)(F)F)c1` (stereo not shown) [Compound I-096], the figure is 2.88^[a].
